Laboratory results reported in patent US10770169B2, “Method of providing a treatment to a subject based on a dynamic pathway map” (THE REGENTS OF THE UNIVERSITY OF CALIFORNIA, priority 2010, dated 2020).
Structures can show the parent of a compound that is named as a salt. Where two headings read alike, the source gives them in different places.

Test system: panel of 55 breast cancer cell lines
Assay: Cell growth inhibition assay (Cell Titer Glo, 72 h, 9 doses; GI50, TGI, LC50)
Assay type: cell-based, human
Details: Homo sapiens, read-out: GI50 (converted)
[1] = AU565, AU565 cell line, censored GI50 values
[2] = BT-20, BT20 cell line, censored GI50 values
[3] = CAMA-1, CAMA1 cell line, censored GI50 values
[4] = HCC38, HCC38 cell line, censored GI50 values
[5] = HCC70, HCC70 cell line, censored GI50 values
[6] = HCC1143, HCC1143 cell line, censored GI50 values
[7] = HCC1187, HCC1187 cell line, censored GI50 values
[8] = HCC1419, HCC1419 cell line, censored GI50 values
[9] = HCC2185 cell line, censored GI50 values
[10] = MDA-MB-134-VI, MDAMB134VI cell line, censored GI50 values
[11] = MDA-MB-175-VII, MDAMB175VII cell line, censored GI50 values
[12] = MDA-MB-231, MDAMB231 cell line, censored GI50 values
[13] = MDA-MB-361, MDAMB361 cell line, censored GI50 values
[14] = MDA-MB-415, MDAMB415 cell line, censored GI50 values
[15] = MDA-MB-453, MDAMB453 cell line, censored GI50 values
[16] = MDA-MB-468, MDAMB468 cell line, censored GI50 values
[17] = SUM52PE, SUM52PE cell line, censored GI50 values
[18] = SUM149PT, SUM149PT cell line, censored GI50 values
[19] = SUM1315MO2, SUM1315MO2 cell line, censored GI50 values
[20] = SUM-159-PT, SUM159PT cell line, censored GI50 values
[21] = T47D, T47D cell line, censored GI50 values
[22] = UACC-812, UACC812 cell line, censored GI50 values
[23] = ZR-75-1, ZR751 cell line, censored GI50 values
[24] = BT-474, BT474 cell line, censored GI50 values
[25] = BT-483, BT483 cell line, censored GI50 values
[26] = HCC1395, HCC1395 cell line, censored GI50 values
[27] = HCC1428, HCC1428 cell line, censored GI50 values
[28] = HCC1500, HCC1500 cell line, censored GI50 values
[29] = HCC1806, HCC1806 cell line, censored GI50 values
[30] = HCC1937, HCC1937 cell line, censored GI50 values
[31] = HCC1954, HCC1954 cell line, censored GI50 values
[32] = SK-BR-3, SKBR3 cell line, censored GI50 values

Structure (SMILES): Cc1cncc2cccc(S(=O)(=O)N3CCCN(C(=O)CN)C[C@@H]3C)c12 [Glycyl-H-1152]
- GI50 [1]: 7.24 µM
- GI50 (AU565, cell line AU565): 7.24 µM
- GI50 [2]: 7.08 µM
- GI50 (BT-20, cell line BT20): 7.08 µM
- GI50 (BT-474, cell line BT474): 66.1 µM
- GI50 (BT-483, cell line BT483): 44.7 µM
- GI50 [3]: 8.13 µM
- GI50 (CAMA-1, cell line CAMA1): 8.13 µM
- GI50 [4]: 1.02 µM
- GI50 (HCC38, cell line HCC38): 1.02 µM
- GI50 [5]: 0.813 µM
- GI50 (HCC70, cell line HCC70): 0.813 µM
- GI50 [6]: 15.8 µM
- GI50 (HCC1143, cell line HCC1143): 15.8 µM
- GI50 [7]: 0.832 µM
- GI50 (HCC1187, cell line HCC1187): 0.832 µM
- GI50 [8]: 17 µM
- GI50 (HCC1419, cell line HCC1419): 17 µM
- GI50 (HCC1428, cell line HCC1428): 50.1 µM
- GI50 (HCC1500, cell line HCC1500): 66.1 µM
- GI50 (HCC1937, cell line HCC1937): 66.1 µM
- GI50 (HCC1954, cell line HCC1954): 33.1 µM
- GI50 [9]: 2.88 µM
- GI50 (MCF7, cell line MCF7): 21.4 µM
- GI50 [10]: 1.17 µM
- GI50 [11]: 33.1 µM
- GI50 [12]: 22.9 µM
- GI50 (MDA-MB-231, cell line MDAMB231): 22.9 µM
- GI50 [13]: 33.1 µM
- GI50 (MDA-MB-361, cell line MDAMB361): 33.1 µM
- GI50 [14]: 33.1 µM
- GI50 (MDA-MB-415, cell line MDAMB415): 33.1 µM
- GI50 (MDA-MB-436, cell line MDAMB436): 43.7 µM
- GI50 [15]: 28.2 µM
- GI50 (MDA-MB-453, cell line MDAMB453): 28.2 µM
- GI50 [16]: 2.04 µM
- GI50 (MDA-MB-468, cell line MDAMB468): 2.04 µM
- GI50 (SK-BR-3, cell line SKBR3): 46.8 µM
- GI50 [17]: 9.12 µM
- GI50 (SUM52PE, cell line SUM52PE): 9.12 µM
- GI50 [18]: 30.2 µM
- GI50 (SUM149PT, cell line SUM149PT): 30.2 µM
- GI50 [19]: 11 µM
- GI50 [20]: 1.74 µM
- GI50 (SUM-159-PT, cell line SUM159PT): 1.74 µM
- GI50 [21]: 15.1 µM
- GI50 (T47D, cell line T47D): 15.1 µM
- GI50 [22]: 38 µM
- GI50 (UACC-812, cell line UACC812): 38 µM
- GI50 [23]: 3.55 µM
- GI50 (ZR-75-1, cell line ZR751): 3.55 µM
- GI50 (ZR-75B, cell line ZR75B): 66.1 µM
- GI50 (cell line HCC2185): 2.88 µM
- GI50 (cell line HCC3153): 33.1 µM
- GI50 (cell line MDAMB134V): 1.17 µM
- GI50 (cell line MDAMB175V): 33.1 µM
- GI50 (cell line SUM1315MO): 11 µM

Structure (SMILES): CCCCCN(C)CCC(O)(P(=O)(O)O)P(=O)(O)O [Ibandronate sodium salt]
- GI50 [1]: 182 µM
- GI50 (AU565, cell line AU565): 182 µM
- GI50 [2]: 20.4 µM
- GI50 (BT-20, cell line BT20): 20.4 µM
- GI50 [24]: 105 µM
- GI50 [25]: 57.5 µM
- GI50 [3]: 162 µM
- GI50 [4]: 57.5 µM
- GI50 [5]: 69.2 µM
- GI50 [6]: 43.7 µM
- GI50 [7]: 170 µM
- GI50 [26]: 7.41 µM
- GI50 [8]: 7.59 µM
- GI50 [27]: 129 µM
- GI50 [28]: 38 µM
- GI50 [29]: 33.1 µM
- GI50 [30]: 40.7 µM
- GI50 [31]: 55 µM
- GI50 [9]: 15.1 µM
- GI50 (HCC3153 cell line, censored GI50 values): 79.4 µM
- GI50 [10]: 69.2 µM
- GI50 [11]: 33.9 µM
- GI50 [12]: 74.1 µM
- GI50 [14]: 49 µM
- GI50 [15]: 110 µM
- GI50 [16]: 93.3 µM
- GI50 [32]: 89.1 µM
- GI50 [17]: 35.5 µM
- GI50 [18]: 174 µM
- GI50 (SUM225CWN, SUM225CWN cell line, censored GI50 values): 501 µM
- GI50 [19]: 50.1 µM
- GI50 [20]: 42.7 µM
- GI50 [21]: 34.7 µM
- GI50 [22]: 155 µM
- GI50 [23]: 69.2 µM
- GI50 (ZR-75B, ZR75B cell line, censored GI50 values): 141 µM

Structure (SMILES): COc1cc2ncnc(Nc3ccc(F)c(Cl)c3)c2cc1OCCCN1CCOCC1 [Iressa]
- GI50 (600MPE cell line, censored GI50 values): 7.24 µM
- GI50 [1]: 1.07 µM
- GI50 [24]: 0.724 µM
- GI50 [25]: 6.17 µM
- GI50 (BT-549, BT549 cell line, censored GI50 values): 15.1 µM
- GI50 [5]: 17.4 µM
- GI50 [6]: 11.7 µM
- GI50 [26]: 7.08 µM
- GI50 [8]: 2.75 µM
- GI50 [27]: 10.7 µM
- GI50 [28]: 8.13 µM
- GI50 [29]: 4.68 µM
- GI50 [30]: 8.32 µM
- GI50 [31]: 2.04 µM
- GI50 [9]: 9.33 µM
- GI50 (MDA-MB-157, MDAMB157 cell line, censored GI50 values): 15.1 µM
- GI50 [11]: 0.209 µM
- GI50 [13]: 6.46 µM
- GI50 [14]: 7.41 µM
- GI50 [15]: 7.41 µM
- GI50 [32]: 2.82 µM
- GI50 [17]: 7.94 µM
- GI50 [18]: 2.88 µM
- GI50 (SUM185PE, SUM185PE cell line, censored GI50 values): 20.9 µM
- GI50 [19]: 2.95 µM
- GI50 [20]: 8.51 µM
- GI50 [21]: 15.8 µM
- GI50 (UACC-893, UACC893 cell line, censored GI50 values): 1.15 µM
